For this assay, the system named is human mixed lymphocyte reaction (MLR). The assay can be described thus: human mixed lymphocyte reaction (MLR) assay, immunosuppressant activity. Format: cell-based. Particulars: Table 1. Here is the method:
The immunosuppressant activity of the compounds of the present invention was determined using the human mixed lymphocyte reaction (MLR) assay described by Kino, T. et al. in Transplantation Proceedings, XIX(5):36-39,Suppl.
For `CC[C@@H]1/C=C(\C)C[C@H](C)C[C@H](OC)[C@H]2O[C@@](O)(C(=O)C(=O)N3CCCC[C@H]3C(=O)O[C@H](/C(C)=C/[C@@H]3CC[C@@H](OC(=O)NNC(N)=O)[C@H](OC)C3)[C@H](C)[C@@H](O)CC1=O)[C@H](C)C[C@@H]2OC` [Example 5], half-maximal inhibition (IC50) was put at 8.7 nM.

Consider `CC[C@@H]1/C=C(\C)C[C@H](C)C[C@H](OC)[C@H]2O[C@@](O)(C(=O)C(=O)N3CCCC[C@H]3C(=O)O[C@H](/C(C)=C/[C@@H]3CC[C@@H](OC(=O)NOCc4ccccc4)[C@H](OC)C3)[C@H](C)[C@@H](O)CC1=O)[C@H](C)C[C@@H]2OC` [Example 6], for which the half-inhibitory concentration (IC50) was 0.21 nM.

The compound `CC[C@@H]1/C=C(\C)C[C@H](C)C[C@H](OC)[C@H]2O[C@@](O)(C(=O)C(=O)N3CCCC[C@H]3C(=O)O[C@H](/C(C)=C/[C@@H]3CC[C@@H](OC(=O)N4CCOCC4)[C@H](OC)C3)[C@H](C)[C@@H](O)CC1=O)[C@H](C)C[C@@H]2OC` [Example 8] gave an IC50 of 0.4 nM.

With `CC[C@@H]1/C=C(\C)C[C@H](C)C[C@H](OC)[C@H]2O[C@@](O)(C(=O)C(=O)N3CCCC[C@H]3C(=O)O[C@H](/C(C)=C/[C@@H]3CC[C@@H](OC(=O)N4CCCCC4)[C@H](OC)C3)[C@H](C)[C@@H](O)CC1=O)[C@H](C)C[C@@H]2OC` [Example 12], the IC50 came to 1.2 nM.

Compound `CC[C@@H]1/C=C(\C)C[C@H](C)C[C@H](OC)[C@H]2O[C@@](O)(C(=O)C(=O)N3CCCC[C@H]3C(=O)O[C@H](/C(C)=C/[C@@H]3CC[C@@H](OC(=O)N(CCO)CCO)[C@H](OC)C3)[C@H](C)[C@@H](O)CC1=O)[C@H](C)C[C@@H]2OC` [Example 13] displayed an IC50 of 3.3 nM.

`CC[C@@H]1/C=C(\C)C[C@H](C)C[C@H](OC)[C@H]2O[C@@](O)(C(=O)C(=O)N3CCCC[C@H]3C(=O)O[C@H](/C(C)=C/[C@@H]3CC[C@@H](OC(=O)Nc4ccncc4)[C@H](OC)C3)[C@H](C)[C@@H](O)CC1=O)[C@H](C)C[C@@H]2OC` [Example 14]: 0.48 nM corresponded to half-maximal inhibition (IC50).

With `CC[C@@H]1/C=C(\C)C[C@H](C)C[C@H](OC)[C@H]2O[C@@](O)(C(=O)C(=O)N3CCCC[C@H]3C(=O)O[C@H](/C(C)=C/[C@@H]3CC[C@@H](OC(=O)N4CCC(O)CC4)[C@H](OC)C3)[C@H](C)[C@@H](O)CC1=O)[C@H](C)C[C@@H]2OC` [Example 15], 1.34 nM corresponded to half-maximal inhibition (IC50).

The compound `CC[C@@H]1/C=C(\C)C[C@H](C)C[C@H](OC)[C@H]2O[C@@](O)(C(=O)C(=O)N3CCCC[C@H]3C(=O)O[C@H](/C(C)=C/[C@@H]3CC[C@@H](OC(=O)N4CCC(=O)CC4)[C@H](OC)C3)[C@H](C)[C@@H](O)CC1=O)[C@H](C)C[C@@H]2OC` [Example 16] registered an IC50 of 4.75 nM.

`CC[C@@H]1/C=C(\C)C[C@H](C)C[C@H](OC)[C@H]2O[C@@](O)(C(=O)C(=O)N3CCCC[C@H]3C(=O)O[C@H](/C(C)=C/[C@@H]3CC[C@@H](OC(=O)N4CCC(C(=O)O)CC4)[C@H](OC)C3)[C@H](C)[C@@H](O)CC1=O)[C@H](C)C[C@@H]2OC` [Example 18] gave an IC50 of 13 nM.

`CC[C@@H]1/C=C(\C)C[C@H](C)C[C@H](OC)[C@H]2O[C@@](O)(C(=O)C(=O)N3CCCC[C@H]3C(=O)O[C@H](/C(C)=C/[C@@H]3CC[C@@H](OC(=O)N4CCC(c5ccccc5)CC4)[C@H](OC)C3)[C@H](C)[C@@H](O)CC1=O)[C@H](C)C[C@@H]2OC` [Example 19] yielded an IC50 of 2.6 nM.

The compound `CC[C@@H]1/C=C(\C)C[C@H](C)C[C@H](OC)[C@H]2O[C@@](O)(C(=O)C(=O)N3CCCC[C@H]3C(=O)O[C@H](/C(C)=C/[C@@H]3CC[C@@H](OC(=O)N4CCNCC4)[C@H](OC)C3)[C@H](C)[C@@H](O)CC1=O)[C@H](C)C[C@@H]2OC` [Example 21] displayed an IC50 of 11 nM.

For `CC[C@@H]1/C=C(\C)C[C@H](C)C[C@H](OC)[C@H]2O[C@@](O)(C(=O)C(=O)N3CCCC[C@H]3C(=O)O[C@H](/C(C)=C/[C@@H]3CC[C@@H](OC(=O)N4CCN(C)CC4)[C@H](OC)C3)[C@H](C)[C@@H](O)CC1=O)[C@H](C)C[C@@H]2OC` [Example 22], the concentration for half-maximal inhibition (IC50) turned out to be 28 nM.

`CC[C@@H]1/C=C(\C)C[C@H](C)C[C@H](OC)[C@H]2O[C@@](O)(C(=O)C(=O)N3CCCC[C@H]3C(=O)O[C@H](/C(C)=C/[C@@H]3CC[C@@H](OC(=O)N(C)C[C@H](O)[C@@H](O)[C@H](O)[C@H](O)CO)[C@H](OC)C3)[C@H](C)[C@@H](O)CC1=O)[C@H](C)C[C@@H]2OC` [Example 23] gave an IC50 of 50 nM.

On to `CC[C@@H]1/C=C(\C)C[C@H](C)C[C@H](OC)[C@H]2O[C@@](O)(C(=O)C(=O)N3CCCC[C@H]3C(=O)O[C@H](/C(C)=C/[C@@H]3CC[C@@H](OC(=O)N(C)OC)[C@H](OC)C3)[C@H](C)[C@@H](O)CC1=O)[C@H](C)C[C@@H]2OC` [Example 24], for which half-maximal inhibition (IC50) required 1.1 nM.

For `CC[C@@H]1/C=C(\C)C[C@H](C)C[C@H](OC)[C@H]2O[C@@](O)(C(=O)C(=O)N3CCCC[C@H]3C(=O)O[C@H](/C(C)=C/[C@@H]3CC[C@@H](OC(=O)N(C)O)[C@H](OC)C3)[C@H](C)[C@@H](O)CC1=O)[C@H](C)C[C@@H]2OC` [Example 25], the IC50 is 0.28 nM.

Turning to `CC[C@@H]1/C=C(\C)C[C@H](C)C[C@H](OC)[C@H]2O[C@@](O)(C(=O)C(=O)N3CCCC[C@H]3C(=O)O[C@H](/C(C)=C/[C@@H]3CC[C@@H](OC(=O)N(O)C4CCCCC4)[C@H](OC)C3)[C@H](C)[C@@H](O)CC1=O)[C@H](C)C[C@@H]2OC` [Example 26], the IC50 stood at 1 nM.

The compound `CC[C@@H]1/C=C(\C)C[C@H](C)C[C@H](OC)[C@H]2O[C@@](O)(C(=O)C(=O)N3CCCC[C@H]3C(=O)O[C@H](/C(C)=C/[C@@H]3CC[C@@H](OC(=O)NO)[C@H](OC)C3)[C@H](C)[C@@H](O)CC1=O)[C@H](C)C[C@@H]2OC` [Example 27] yielded a half-maximal inhibitory concentration (IC50) of 1.28 nM.

`CC[C@@H]1/C=C(\C)C[C@H](C)C[C@H](OC)[C@H]2O[C@@](O)(C(=O)C(=O)N3CCCC[C@H]3C(=O)O[C@H](/C(C)=C/[C@@H]3CC[C@@H](OC(=O)N(CC)CCO)[C@H](OC)C3)[C@H](C)[C@@H](O)CC1=O)[C@H](C)C[C@@H]2OC` [Example 28] registered an IC50 of 4.26 nM.

`CC[C@@H]1/C=C(\C)C[C@H](C)C[C@H](OC)[C@H]2O[C@@](O)(C(=O)C(=O)N3CCCC[C@H]3C(=O)O[C@H](/C(C)=C/[C@@H]3CC[C@@H](OC(=O)N(C)Cc4ccccc4)[C@H](OC)C3)[C@H](C)[C@@H](O)CC1=O)[C@H](C)C[C@@H]2OC` [Example 29] showed an IC50 of 4.45 nM.

`CC[C@@H]1/C=C(\C)C[C@H](C)C[C@H](OC)[C@H]2O[C@@](O)(C(=O)C(=O)N3CCCC[C@H]3C(=O)O[C@H](/C(C)=C/[C@@H]3CC[C@@H](OC(=O)N(C)CCc4ccccc4)[C@H](OC)C3)[C@H](C)[C@@H](O)CC1=O)[C@H](C)C[C@@H]2OC` [Example 30]: the IC50 is 4.2 nM.

`CCOC(=O)CN(C)C(=O)O[C@@H]1CC[C@@H](/C=C(\C)[C@H]2OC(=O)[C@@H]3CCCCN3C(=O)C(=O)[C@]3(O)O[C@H]([C@@H](OC)C[C@@H](C)C/C(C)=C/[C@@H](CC)C(=O)C[C@H](O)[C@H]2C)[C@@H](OC)C[C@H]3C)C[C@H]1OC` [Example 32] displayed an IC50 of 27 nM.

As to `CC[C@@H]1/C=C(\C)C[C@H](C)C[C@H](OC)[C@H]2O[C@@](O)(C(=O)C(=O)N3CCCC[C@H]3C(=O)O[C@H](/C(C)=C/[C@@H]3CC[C@@H](OC(=O)N4CCOCCOCCOCCOCC4)[C@H](OC)C3)[C@H](C)[C@@H](O)CC1=O)[C@H](C)C[C@@H]2OC` [Example 34], the IC50 was determined as 1.1 nM.

`CC[C@@H]1/C=C(\C)C[C@H](C)C[C@H](OC)[C@H]2O[C@@](O)(C(=O)C(=O)N3CCCC[C@H]3C(=O)O[C@H](/C(C)=C/[C@@H]3CC[C@@H](OC(=O)N(C)CCN(CC)CC)[C@H](OC)C3)[C@H](C)[C@@H](O)CC1=O)[C@H](C)C[C@@H]2OC` [Example 35] displayed an IC50 of 1.79 nM.

Take `CC[C@@H]1/C=C(\C)C[C@H](C)C[C@H](OC)[C@H]2O[C@@](O)(C(=O)C(=O)N3CCCC[C@H]3C(=O)O[C@H](/C(C)=C/[C@@H]3CC[C@@H](OC(=O)N4CCC(C(N)=O)CC4)[C@H](OC)C3)[C@H](C)[C@@H](O)CC1=O)[C@H](C)C[C@@H]2OC` [Example 36]: half-maximal inhibition (IC50) was put at 15 nM.

In the case of `CC[C@@H]1/C=C(\C)C[C@H](C)C[C@H](OC)[C@H]2O[C@@](O)(C(=O)C(=O)N3CCCC[C@H]3C(=O)O[C@H](/C(C)=C/[C@@H]3CC[C@H](OC(=O)NC(CO)(CO)CO)[C@H](OC)C3)[C@H](C)[C@@H](O)CC1=O)[C@H](C)C[C@@H]2OC` [Example 40], the IC50 was found to be 0.68 nM.

`CC[C@@H]1/C=C(\C)C[C@H](C)C[C@H](OC)[C@H]2O[C@@](O)(C(=O)C(=O)N3CCCC[C@H]3C(=O)O[C@H](/C(C)=C/[C@@H]3CC[C@H](OC(=O)N4CCOCC4)[C@H](OC)C3)[C@H](C)[C@@H](O)CC1=O)[C@H](C)C[C@@H]2OC` [Example 41] gave an IC50 of 0.08 nM.

For the compound `CC[C@@H]1/C=C(\C)C[C@H](C)C[C@H](OC)[C@H]2O[C@@](O)(C(=O)C(=O)N3CCCC[C@H]3C(=O)O[C@H](/C(C)=C/[C@@H]3CC[C@H](OC(=O)Nc4ccncc4)[C@H](OC)C3)[C@H](C)[C@@H](O)CC1=O)[C@H](C)C[C@@H]2OC` [Example 43], inhibition was half-maximal at 0.34 nM (IC50).

Regarding `CC[C@@H]1/C=C(\C)C[C@H](C)C[C@H](OC)[C@H]2O[C@@](O)(C(=O)C(=O)N3CCCC[C@H]3C(=O)O[C@H](/C(C)=C/[C@@H]3CC[C@H](OC(=O)N(CCO)CCO)[C@H](OC)C3)[C@H](C)[C@@H](O)CC1=O)[C@H](C)C[C@@H]2OC` [Example 45], the IC50 turned out to be 0.11 nM.

The record behind these values is US5534632A, “Macrocyclic carbamate immunomodulators” (Abbott Laboratories, priority 1994, dated 1996).
